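Interpolation was linear, between the two tested concentrations surrounding the appropriate level; five concentrations were tested over 48 hours in 96-well plates. TGI is the concentration that stops growth completely.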

The values that follow come from PubChem BioAssay (NCI).

Some test systems named below: UO-31 renal; NCI-H226 lung; MDA-N; RPMI-8226 leukemia; HOP-92 NSCLC; M14 melanoma; CAKI-1 renal; SR leukemia; LOX IMVI melanoma; HCT-116 colon; MDA-MB-231 breast; RXF 393 renal; HL-60(TB) leukemia.
Common to all, as to assay: NCI anticancer screen, dose series, 48 h

For `Cc1ccc(-c2c3nc(c(-c4ccc(C)cc4)c4ccc([nH]4)c(-c4ccc(OCC5COC(C)(C)O5)cc4)c4nc(c(-c5ccc(C)cc5)c5ccc2[nH]5)C=C4)C=C3)cc1` (stereo unspecified), the TGI with UO-31 renal was more than 31.6 µM; in the assay on NCI-H226 lung, more than 31.6 µM; in the assay with MDA-N, more than 31.6 µM; with RPMI-8226 leukemia, more than 100 µM; in the assay with HOP-92 NSCLC, more than 100 µM; in the assay on M14 melanoma, more than 31.6 µM. The TGI in the assay with CAKI-1 renal was more than 100 µM; in the assay on SR leukemia, more than 31.6 µM; in the assay on LOX IMVI melanoma it was more than 31.6 µM; in the assay with HCT-116 colon, more than 31.6 µM; in the assay on MDA-MB-231 breast it was more than 31.6 µM.

Take `COc1cc(OC)cc(-c2nc3cc(F)ccc3s2)c1`: the TGI is more than 100 µM in the assay on UO-31 renal; 36.6 µM in the assay with RXF 393 renal; 37.8 µM in the assay on NCI-H226 lung; more than 100 µM with MDA-N; more than 100 µM in the assay on RPMI-8226 leukemia; more than 100 µM with M14 melanoma. The TGI with CAKI-1 renal is more than 100 µM; with LOX IMVI melanoma, more than 100 µM; in the assay with HCT-116 colon it was 38.8 µM; with MDA-MB-231 breast, 40.3 µM.

Regarding `NC(=S)Nc1ccc(S(=O)(=O)Nc2ccc(S(N)(=O)=O)cc2)cc1`, the TGI with UO-31 renal, in the assay with RXF 393 renal, in the assay with NCI-H226 lung, in the assay with MDA-N, with RPMI-8226 leukemia and with HL-60(TB) leukemia was more than 100 µM in each case. Moreover, the TGI in the assay on HOP-92 NSCLC, in the assay with M14 melanoma, in the assay on CAKI-1 renal, in the assay on LOX IMVI melanoma, in the assay with HCT-116 colon and in the assay with MDA-MB-231 breast was more than 100 µM in each case.

With `CCOP(=O)(CN1CCNCCNCC1)OCC`, the TGI in the assay on UO-31 renal, in the assay on NCI-H226 lung, in the assay with MDA-N, with RPMI-8226 leukemia, in the assay on HL-60(TB) leukemia and with HOP-92 NSCLC was more than 100 µM each time. For the same molecule, the TGI in the assay with M14 melanoma, with CAKI-1 renal, in the assay on SR leukemia, in the assay on LOX IMVI melanoma, with HCT-116 colon and in the assay with MDA-MB-231 breast was more than 100 µM throughout.

Consider `N#Cc1c(-c2ccccc2)cc(Nc2cccc(C(F)(F)F)c2)n2c1nc1ccccc12`, for which the TGI came to 11.9 µM in the assay on RXF 393 renal; 4.74 µM with NCI-H226 lung; 10.3 µM in the assay with MDA-N; 6.74 µM in the assay on RPMI-8226 leukemia; 0.769 µM in the assay with HOP-92 NSCLC; 13.1 µM in the assay with CAKI-1 renal. The figures for the TGI in the assay on LOX IMVI melanoma, in the assay on HCT-116 colon and in the assay with MDA-MB-231 breast were 3.95 µM, 3.52 µM and 9.85 µM, respectively.

With `COc1cc(OC)c2c(=O)c(OC)c(-c3ccc4c(c3)OCO4)oc2c1`, the TGI in the assay with UO-31 renal is more than 100 µM; in the assay on RXF 393 renal, 72.6 µM; in the assay on NCI-H226 lung, more than 100 µM; with MDA-N, more than 100 µM; in the assay on HL-60(TB) leukemia, more than 100 µM; with M14 melanoma, more than 100 µM. The TGI is 60.5 µM in the assay on CAKI-1 renal, 48.8 µM with LOX IMVI melanoma, more than 100 µM with HCT-116 colon and more than 100 µM in the assay on MDA-MB-231 breast.

Consider `CCn1c2ccccc2n2c(=O)c3c(c(C#N)c12)CCCC3`, for which the TGI in the assay on UO-31 renal, in the assay on NCI-H226 lung, in the assay with MDA-N, in the assay on HL-60(TB) leukemia, with HOP-92 NSCLC and with M14 melanoma was more than 100 µM in each case. Besides, the TGI in the assay on CAKI-1 renal, with LOX IMVI melanoma, in the assay with HCT-116 colon and in the assay on MDA-MB-231 breast was more than 100 µM each time.

As to `CSC1=N/C(=C\c2ccccc2)C(=O)N1CN1CCCCC1`, the TGI in the assay on UO-31 renal, in the assay with NCI-H226 lung, with MDA-N, in the assay on RPMI-8226 leukemia, with HOP-92 NSCLC and in the assay with M14 melanoma was more than 100 µM throughout. The TGI in the assay on SR leukemia, in the assay with LOX IMVI melanoma, with HCT-116 colon and in the assay on MDA-MB-231 breast was more than 100 µM each time.

For the molecule `CC(=O)OC1(C)C=CC(=O)C=C1`, the TGI is 46.4 µM with UO-31 renal; 73 µM in the assay on NCI-H226 lung; more than 100 µM in the assay on MDA-N; more than 100 µM in the assay with RPMI-8226 leukemia; more than 100 µM in the assay with HL-60(TB) leukemia; more than 100 µM in the assay on HOP-92 NSCLC. The TGI in the assay on M14 melanoma is more than 100 µM; with CAKI-1 renal, more than 100 µM; in the assay on SR leukemia, more than 100 µM; in the assay on LOX IMVI melanoma it was more than 100 µM; in the assay with HCT-116 colon it was more than 100 µM; in the assay on MDA-MB-231 breast, 49.1 µM.

Regarding `CC(C)Oc1ccc2c(c1)OCC1Cc3ccccc3OC21` (stereo unspecified), the TGI with UO-31 renal, with NCI-H226 lung, with MDA-N, with RPMI-8226 leukemia, in the assay on HL-60(TB) leukemia and in the assay on HOP-92 NSCLC was more than 100 µM each time. Further, the TGI with M14 melanoma, in the assay on CAKI-1 renal, in the assay with SR leukemia, with LOX IMVI melanoma, with HCT-116 colon and in the assay with MDA-MB-231 breast was more than 100 µM each time.

As for `N#C/C(N)=C(\C#N)N=CN`, the TGI in the assay on UO-31 renal, in the assay with MDA-N, in the assay on RPMI-8226 leukemia, in the assay on HL-60(TB) leukemia, in the assay on HOP-92 NSCLC and in the assay on M14 melanoma was more than 100 µM each time. Further, the TGI in the assay with SR leukemia, in the assay with LOX IMVI melanoma, with HCT-116 colon and in the assay on MDA-MB-231 breast was more than 100 µM each time.

As to `Cc1nn(C(=O)Cc2ccccc2)c2c1C(c1ccc(N(C)C)cc1)SC(N)=N2` (stereo unspecified), the TGI in the assay on UO-31 renal, in the assay with NCI-H226 lung, with MDA-N, in the assay on RPMI-8226 leukemia, in the assay on HL-60(TB) leukemia and with M14 melanoma was more than 100 µM each time. The TGI in the assay with CAKI-1 renal, with SR leukemia, in the assay with LOX IMVI melanoma, in the assay with HCT-116 colon and in the assay on MDA-MB-231 breast was more than 100 µM throughout.

As to `COc1ccc(C2C3=C(Nc4ncnn42)c2ccccc2OC3c2ccccc2)cc1` (stereo unspecified), the TGI with UO-31 renal was more than 100 µM; with RXF 393 renal, 48.1 µM; in the assay on MDA-N, 44.1 µM; in the assay with HL-60(TB) leukemia, 8.92 µM; in the assay on M14 melanoma, more than 100 µM; in the assay with CAKI-1 renal, more than 100 µM. The TGI in the assay on SR leukemia, in the assay on LOX IMVI melanoma, with HCT-116 colon and in the assay with MDA-MB-231 breast was more than 100 µM throughout.

As for `NC(CCC(=O)O)C(=O)N1CCN(c2nc(N3CCCC3)c3nc(Cl)c(NCc4ccccc4)nc3n2)CC1` (stereo unspecified), the TGI in the assay on UO-31 renal was found to be 21.6 µM; in the assay with NCI-H226 lung it was 32.9 µM; in the assay on MDA-N it was 23.1 µM; with RPMI-8226 leukemia it was 34.3 µM; in the assay on HL-60(TB) leukemia, 24.4 µM; in the assay on HOP-92 NSCLC, 32.2 µM. Further, the TGI in the assay on M14 melanoma was found to be 22.6 µM; in the assay with CAKI-1 renal, 39.6 µM; with SR leukemia, 17.5 µM; in the assay on LOX IMVI melanoma, 32.3 µM; in the assay with HCT-116 colon it was 28.4 µM; in the assay with MDA-MB-231 breast, 31.2 µM.

As to `O=C(O)Cc1cccc2c1OC(c1ccccc1)C(Cl)(C(=O)c1ccccc1)C2=O` (stereo unspecified), the TGI with UO-31 renal turned out to be 31.9 µM; with NCI-H226 lung, 80.9 µM; in the assay with MDA-N, 29 µM; with RPMI-8226 leukemia, 47.4 µM; in the assay on HL-60(TB) leukemia it was 28 µM; with CAKI-1 renal, 31.6 µM. The TGI in the assay with SR leukemia came out at 60.6 µM; in the assay on LOX IMVI melanoma, 29.2 µM; with HCT-116 colon it was 29.4 µM; in the assay with MDA-MB-231 breast, 58.8 µM.

Turning to `COc1cc2c(cc1OC)CCc1cc(OC)c(OC)cc1CC2`, the TGI in the assay with UO-31 renal, in the assay with NCI-H226 lung, in the assay with MDA-N, in the assay with HOP-92 NSCLC, in the assay on M14 melanoma and in the assay on CAKI-1 renal was more than 100 µM throughout. The TGI in the assay with SR leukemia, in the assay with LOX IMVI melanoma, in the assay on HCT-116 colon and in the assay on MDA-MB-231 breast was more than 100 µM throughout.

As to `COC(=O)C(COC(C)=O)NC(=O)/C=C/c1ccc(O)c(OC(C)=O)c1` (stereo unspecified), the TGI in the assay with UO-31 renal, in the assay on NCI-H226 lung, in the assay on MDA-N, in the assay on RPMI-8226 leukemia, in the assay on HOP-92 NSCLC and with M14 melanoma was more than 100 µM throughout. Further, the TGI with CAKI-1 renal, in the assay on SR leukemia, in the assay on LOX IMVI melanoma, in the assay on HCT-116 colon and with MDA-MB-231 breast was more than 100 µM each time.

Take `CC(=O)OCCOCn1cnc2c(Cl)nc(Cl)nc21`: the TGI in the assay with UO-31 renal came out at 36.4 µM; in the assay on NCI-H226 lung, 50.6 µM; in the assay on MDA-N, 32.9 µM; with RPMI-8226 leukemia, 33.5 µM; with HL-60(TB) leukemia, 6.21 µM; with HOP-92 NSCLC it was 3.37 µM. Besides, the TGI in the assay on M14 melanoma is 37.1 µM; in the assay on CAKI-1 renal it was 0.832 µM; in the assay with SR leukemia, 16.1 µM; in the assay on LOX IMVI melanoma it was 15.8 µM; with HCT-116 colon it was 32 µM; in the assay on MDA-MB-231 breast it was 29 µM.

With `O=C(Cc1ccccc1)N/N=C/c1ccccc1O`, the TGI with UO-31 renal was 72.9 µM; in the assay with NCI-H226 lung, 81.5 µM; in the assay with MDA-N it was more than 100 µM; in the assay on RPMI-8226 leukemia, more than 100 µM; with HL-60(TB) leukemia it was more than 100 µM; in the assay with HOP-92 NSCLC, 54.8 µM. In addition, the TGI in the assay on M14 melanoma was 22.8 µM; with CAKI-1 renal, more than 100 µM; with SR leukemia, more than 100 µM; with LOX IMVI melanoma it was more than 100 µM; in the assay with HCT-116 colon, more than 100 µM; with MDA-MB-231 breast, more than 100 µM.
